Measurements reported in patent US12643912B2, “Macrocyclic compounds, a process for their preparation and pharmaceutical compositions containing them” (LES LABORATOIRES SERVIER, priority 2020, dated 2026).
Like-named read-outs stand apart in the source and are kept apart here.

Columns and labels:
[1] = tested on: Nrf2 (Keap1-NRF2 nuclear translocation); experiment: U2OS translocation assay (PathHunter U2OS Keap1-NRF2 Nuclear Translocation Cell Line); assay type: cell-based
Summary of the method: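 Enzyme-fragment complementation read-out: luminescence after 60 min of detection reagent at room temperature, following a 3 h, 37° C compound exposure of engineered U2OS Keap1-NRF2 translocation cells (1% FBS medium). Signal scaled from 1% DMSO basal to 10 μM andrographolide maximum.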

Keap1 (A321-C624) (h) = target: T1, Keap1 (A321-C624) (h) (Homo sapiens, UniProt Q14145); experiment: Surface Plasmon Resonance binding assay to Kelch domain of KEAP1; conditions: Biacore T200, 25° C., immobilized His-Thromb-KEAP1(A321-C624), single cycle kinetics, KD=kd/ka from 1:1 fit; read-out: Keap1 (A321-C624) (h) direct/SPR (KD)
T1 construct: His-Thromb-KEAP1(A321-C624) acquired from Novalix (batch PU-P01) was immobilized covalently by amine coupling; His tag (N); thrombin cleavage site (Thromb) (N); purchased Novalix batch PU-P01
T1 sequence (Q14145 321-624): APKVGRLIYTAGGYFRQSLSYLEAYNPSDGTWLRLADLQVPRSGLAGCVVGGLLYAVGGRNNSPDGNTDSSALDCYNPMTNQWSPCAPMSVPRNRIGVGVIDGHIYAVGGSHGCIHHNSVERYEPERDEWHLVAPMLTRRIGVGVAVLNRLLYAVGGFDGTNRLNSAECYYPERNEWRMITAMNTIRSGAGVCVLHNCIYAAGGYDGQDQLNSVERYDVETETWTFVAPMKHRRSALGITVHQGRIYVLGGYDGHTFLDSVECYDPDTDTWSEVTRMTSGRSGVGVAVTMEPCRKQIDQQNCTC
Description: EXAMPLE 85: SURFACE PLASMON RESONANCE
Binding assay to Kelch domain of KEAP1 was performed by Surface Plasmon Resonance (SPR) on a Biacore T200 (GE Healthcare) at 25° C. using CM5 chip. His-Thromb-KEAP1(A321-C624) acquired from Novalix (batch PU-P01) was immobilized covalently by amine coupling using standard wizard protocol, at a concentration of 20 μg/mL in sodium acetate pH 5.5. The ligand was captured until 1250 RU was reached. Amine blank is used as the reference flow cell. Binding of analyte to the ligand was monitored in real time with associations of 180 seconds and a dissociation of 720 seconds. Association (ka) and dissociation (kd) rates were fitted with a simple 1:1 kinetic interaction model using Biacore T200 Evaluation Software (GE Healthcare). The equilibrium constant (KD=kd/ka) was calculated from these fitted parameters. […] The Biacore binding assay was performed with a flowrate of 50 μL/min using a running buffer of 10 mM HEPES (pH 7.4), 150 mM NaCl, 3 mM EDTA, 1 mM TCEP, 0.05% P20,5% DMSO. Double subtraction was used by subtracting both reference flow cell and previous blank cycle (with running buffer). Solvent correction was applied to correct DMSO bulk effect.

[2] = read-out: CELLULAR U2OS EC50, U2OS Keap1-NRF2 nuclear translocation cells, 3 h incubation, luminescence, normalized between 1% DMSO and 10 μM andrographolide
[3] = Homo sapiens, U2OS, 3 h, read-out: CELLULAR U2OS EC50 (nM), U2OS Keap1-NRF2 nuclear translocation cells, 3 h incubation, luminescence, normalized between 1% DMSO and 10 μM andrographolide

SMILES	Kd (Keap1 (A321-C624) (h)) [nM]	EC50 [1, 2] [nM]	EC50 [1, 3] [nM]
Cc1ccc2cc1CN1Cc3cc(ccc3OS1(=O)=O)OCCCCCn1nnc3c(C)c(ccc31)C2CC(=O)O (single isomer, unassigned) [Example 1b, [4,32-dimethyl-28,28-dioxo-22,27-dioxa-28λ^6-thia-1,14,15,16-tetraazahexacyclo[21.5.3.1^3,70.1^9,130.0^12,160.0^26,30]tritriaconta-3(33),4,6,9(32),10,12,14,23,25,30-decaen-8-yl]acetic acid]	3.97	735	
COc1cc2cc(c1)C(CC(=O)O)c1ccc3c(nnn3CCCCOc3ccc4c(c3)CN(C2)S(=O)(=O)O4)c1C (single isomer, unassigned) [Example 8a, [5-Methoxy-31-methyl-27,27-dioxo-21,26-dioxa-27λ^6-thia-1,14,15,16-tetraazahexacyclo[20.5.3.1^3,70.1^9,130.0^12,160.0^25,29]dotriaconta-3(32),4,6,9(31),10,12,14,22,24,29-decaen-8-yl]acetic acid]	62.2		986
Cc1c2ccc3c1nnn3CCCCOc1ccc3c(c1)CN(Cc1cc(ccc1Cl)C2CC(=O)O)S(=O)(=O)O3 (single isomer, unassigned) [Example 9a, [4-Chloro-31-methyl-27,27-dioxo-21,26-dioxa-27λ^6-thia-1,14,15,16-tetraazahexacyclo[20.5.3.1^3,70.1^9,130.0^12,160.0^25,29]dotriaconta-3(32),4,6,9(31),10,12,14,22,24,29-decaen-8-yl]acetic acid]	2.12	48.2	
Cc1ccc2cc1CN1Cc3cc(ccc3OS1(=O)=O)OCCCCCCn1nnc3c(C)c(ccc31)C2CC(=O)O (single isomer, unassigned) [Example 11b, [4,33-Dimethyl-29,29-dioxo-23,28-dioxa-29λ^6-thia-1,14,15,16-tetraazahexacyclo[22.5.3.1^3,70.1^9,130.0^12,160.0^27,31]tetratriaconta-3(34),4,6,9(33),10,12,14,24,26,31-decaen-8-yl]acetic acid]	0.778	13.1	
Cc1c2ccc3c1nnn3CCCCOc1ccc3c(c1)CN(Cc1cc(cc(C(F)(F)F)c1)C2CC(=O)O)S(=O)(=O)O3 (single isomer, unassigned) [Example 12a, [31-Methyl-27,27-dioxo-5-(trifluoromethyl)-21,26-dioxa-27λ^6-thia-1,14,15,16-tetraazahexacyclo[20.5.3.1^3,70.1^9,130.0^12,160.0^25,29]dotriaconta-3(32),4,6,9(31),10,12,14,22,24,29-decaen-8-yl]acetic acid]	3070		3160
Cc1ccc2cc1CN1Cc3cc(cc(C)c3OS1(=O)=O)OCCCCn1nnc3c(C)c(ccc31)C2CC(=O)O (single isomer, unassigned) [Example 15b, [4,24,31-Trimethyl-27,27-dioxo-21,26-dioxa-27λ^6-thia-1,14,15,16-tetraazahexacyclo[20.5.3.1^3,70.1^9,130.0^12,160.0^25,29]dotriaconta-3(32),4,6,9(31),10,12,14,22,24,29-decaen-8-yl]acetic acid]	4.41	381	
COc1cc2cc3c1OS(=O)(=O)N(Cc1cc(ccc1C)C(CC(=O)O)c1ccc4c(nnn4CCCCO2)c1C)C3 (single isomer, unassigned) [Example 16a, [24-Methoxy-4,31-dimethyl-27,27-dioxo-21,26-dioxa-27λ^6-thia-1,14,15,16-tetraazahexacyclo[20.5.3.1^3,70.1^9,130.0^12,160.0^25,29]dotriaconta-3(32),4,6,9(31),10,12,14,22,24,29-decaen-8-yl]acetic acid]	4.03	871	
COc1cc2cc3c1OS(=O)(=O)N(Cc1cc(ccc1C)C(CC(=O)O)c1ccc4c(nnn4CCCCO2)c1C)C3 (single isomer, unassigned) [Example 16b, [24-Methoxy-4,31-dimethyl-27,27-dioxo-21,26-dioxa-27λ^6-thia-1,14,15,16-tetraazahexacyclo[20.5.3.1^3,70.1^9,130.0^12,160.0^25,29]dotriaconta-3(32),4,6,9(31),10,12,14,22,24,29-decaen-8-yl]acetic acid]	1.73	108	
Cc1ccc2cc1CN1Cc3cc(cc(F)c3OS1(=O)=O)OCCCCn1nnc3c(C)c(ccc31)C2CC(=O)O (single isomer, unassigned) [Example 17a, [24-Fluoro-4,31-dimethyl-27,27-dioxo-21,26-dioxa-27λ^6-thia-1,14,15,16-tetraazahexacyclo[20.5.3.1^3,70.1^9,130.0^12,160.0^25,29]dotriaconta-3(32),4,6,9(31),10,12,14,22,24,29-decaen-8-yl]acetic acid]	25.7	1660	

Now from value to compound, other results behind:

Kd (Keap1 (A321-C624) (h)) [nM]	SMILES	EC50 [1, 2] [nM]	EC50 [1, 3] [nM]
12.4	COc1cc2cc(c1)C(CC(=O)O)c1ccc3c(nnn3CCCCOc3ccc4c(c3)CN(C2)S(=O)(=O)O4)c1C (single isomer, unassigned) [Example 8b, [5-Methoxy-31-methyl-27,27-dioxo-21,26-dioxa-27λ^6-thia-1,14,15,16-tetraazahexacyclo[20.5.3.1^3,70.1^9,130.0^12,160.0^25,29]dotriaconta-3(32),4,6,9(31),10,12,14,22,24,29-decaen-8-yl]acetic acid]	516	
9.99	Cc1c2ccc3c1nnn3CCCCOc1ccc3c(c1)CN(Cc1cc(ccc1Cl)C2CC(=O)O)S(=O)(=O)O3 (single isomer, unassigned) [Example 9b, [4-Chloro-31-methyl-27,27-dioxo-21,26-dioxa-27λ^6-thia-1,14,15,16-tetraazahexacyclo[20.5.3.1^3,70.1^9,130.0^12,160.0^25,29]dotriaconta-3(32),4,6,9(31),10,12,14,22,24,29-decaen-8-yl]acetic acid]	845	
3.54	COc1ccc2cc1CN1Cc3cc(ccc3OS1(=O)=O)OCCCCn1nnc3c(C)c(ccc31)C2CC(=O)O (single isomer, unassigned) [Example 10a, [4-Methoxy-31-methyl-27,27-dioxo-21,26-dioxa-27λ^6-thia-1,14,15,16-tetraazahexacyclo[20.5.3.1^3,70.1^9,130.0^12,160.0^25,29]dotriaconta-3(32),4,6,9(31),10,12,14,22,24,29-decaen-8-yl]acetic acid]	58.1	
15.1	COc1ccc2cc1CN1Cc3cc(ccc3OS1(=O)=O)OCCCCn1nnc3c(C)c(ccc31)C2CC(=O)O (single isomer, unassigned) [Example 10b, [4-Methoxy-31-methyl-27,27-dioxo-21,26-dioxa-27λ^6-thia-1,14,15,16-tetraazahexacyclo[20.5.3.1^3,70.1^9,130.0^12,160.0^25,29]dotriaconta-3(32),4,6,9(31),10,12,14,22,24,29-decaen-8-yl]acetic acid]	369	
2.42	Cc1ccc2cc1CN1Cc3cc(ccc3OS1(=O)=O)OCCCCCCn1nnc3c(C)c(ccc31)C2CC(=O)O (single isomer, unassigned) [Example 11a, [4,33-Dimethyl-29,29-dioxo-23,28-dioxa-29λ^6-thia-1,14,15,16-tetraazahexacyclo[22.5.3.1^3,70.1^9,130.0^12,160.0^27,31]tetratriaconta-3(34),4,6,9(33),10,12,14,24,26,31-decaen-8-yl]acetic acid]	109	
2920	Cc1c2ccc3c1nnn3CCCCOc1ccc3c(c1)CN(Cc1cc(cc(C(F)(F)F)c1)C2CC(=O)O)S(=O)(=O)O3 (single isomer, unassigned) [Example 12b, [31-Methyl-27,27-dioxo-5-(trifluoromethyl)-21,26-dioxa-27λ^6-thia-1,14,15,16-tetraazahexacyclo[20.5.3.1^3,70.1^9,130.0^12,160.0^25,29]dotriaconta-3(32),4,6,9(31),10,12,14,22,24,29-decaen-8-yl]acetic acid]	> 3160	
1.92	Cc1ccc2cc1CN1Cc3cc(cc(C)c3OS1(=O)=O)OCCCCn1nnc3c(C)c(ccc31)C2CC(=O)O (single isomer, unassigned) [Example 15a, [4,24,31-Trimethyl-27,27-dioxo-21,26-dioxa-27λ^6-thia-1,14,15,16-tetraazahexacyclo[20.5.3.1^3,70.1^9,130.0^12,160.0^25,29]dotriaconta-3(32),4,6,9(31),10,12,14,22,24,29-decaen-8-yl]acetic acid]	57.9	
